According to PMC4744570 (Pharmaceutical research, 2015):

Experiments:
[1] = Lung pharmacokinetic profiling in guinea pigs after intratracheal instillation; assay type: in vivo, guinea pigs (Cavia porcellus); conditions: male, guinea pig, 1.6 mg
[2] = parent drug; cited from earlier work
P. aeruginosa = conditions: cited from earlier work

C[C@@H](O)[C@H]1C(=O)N2C(C(=O)O)=C(S[C@@H]3CN[C@H](C(=O)N(C)C)C3)[C@H](C)[C@H]12 [meropenem]
Cmax ([1]; inhaled or intranasal): > 70000 ng/mL | concentration at 3 h ([1]; other: intratracheal): < 1000 ng/mL | concentration at 9 h ([1]; other: intratracheal): 12 ng/mL | concentration at 12 h ([1]; other: intratracheal): 10 ng/mL | solubility (S) in water [2]: > 50 mg/mL | MIC90 (P. aeruginosa): 8,000 ng/mL
